Each structure is given as a SMILES string.

One assay has as its target Histone deacetylase 1 (Homo sapiens, UniProt Q13547). In words: (§1) Enzyme Assay: The assay have been carried out in a 96 well format and the BIOMOL using a fluorescent-based HDAC activity assay.
In a further assay the target is T1, Histone deacetylase 8 (Homo sapiens, UniProt Q9BY41).
T1 sequence (Q9BY41 whole entry): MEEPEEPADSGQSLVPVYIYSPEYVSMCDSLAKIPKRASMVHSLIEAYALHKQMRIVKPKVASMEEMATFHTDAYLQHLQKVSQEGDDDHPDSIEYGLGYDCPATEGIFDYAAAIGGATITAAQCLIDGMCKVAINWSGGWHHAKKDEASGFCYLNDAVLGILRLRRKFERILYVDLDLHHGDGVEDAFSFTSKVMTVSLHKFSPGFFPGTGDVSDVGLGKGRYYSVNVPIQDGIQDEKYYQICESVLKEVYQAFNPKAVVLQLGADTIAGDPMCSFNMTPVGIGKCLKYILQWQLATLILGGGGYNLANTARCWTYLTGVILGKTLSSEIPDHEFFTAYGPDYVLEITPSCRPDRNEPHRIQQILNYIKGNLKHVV
The assay is described as §1.

Sequence of Histone deacetylase 1 (Q13547 whole entry): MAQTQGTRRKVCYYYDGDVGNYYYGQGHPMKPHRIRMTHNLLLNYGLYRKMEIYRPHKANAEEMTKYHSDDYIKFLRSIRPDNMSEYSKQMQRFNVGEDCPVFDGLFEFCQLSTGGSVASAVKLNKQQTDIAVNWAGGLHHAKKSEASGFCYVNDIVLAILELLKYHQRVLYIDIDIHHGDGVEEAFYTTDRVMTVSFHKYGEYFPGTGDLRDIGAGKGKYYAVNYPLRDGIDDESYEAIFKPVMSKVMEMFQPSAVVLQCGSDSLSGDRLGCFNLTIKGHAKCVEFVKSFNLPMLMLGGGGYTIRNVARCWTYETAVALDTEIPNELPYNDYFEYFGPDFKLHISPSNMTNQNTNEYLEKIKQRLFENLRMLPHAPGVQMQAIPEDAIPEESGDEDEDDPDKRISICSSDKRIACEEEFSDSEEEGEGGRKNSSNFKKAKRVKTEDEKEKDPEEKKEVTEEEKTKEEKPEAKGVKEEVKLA

As to `COc1ccc(-c2nc3cc(/C=C/C(=O)NO)ccc3n2CC(O)CO)cc1` (stereo unspecified), the IC50 amounted to 1.38 µM against Histone deacetylase 1 and 0.262 µM against Histone deacetylase 8.
Taken in the same sequence, the figures for `COc1cc(-c2nc3cc(/C=C/C(=O)NO)ccc3n2C)ccc1OCc1ccccc1` were 1.37 µM and 1.71 µM.
Taken in the same sequence, the figures for `O=C(/C=C/c1ccc2c(c1)nc(C1CCCCC1)n2CCCO)NO` were 3.24 µM and 0.203 µM.

By IC50 is commonly meant the concentration at which inhibition is half-maximal. Low values mean greater potency, high ones weaker potency.

The values above are taken from ChEMBL document CHEMBL3639191, “Benzimidazole derivatives: preparation and pharmaceutical applications” (2013).
